Test results published in US11840686B2, “Modulation of prekallikrein (PKK) expression” (Ionis Pharmaceuticals, Inc., priority 2013, dated 2023).
Strand notation (5' to 3'): a small letter for the sugar, then the base; units joined by * are phosphorothioate-linked, units joined directly phosphodiester-linked; [ ] holds rarer units or linkages, { } end groups; capitals alone tell only the bases. e = 2'-O-(2-methoxyethyl) (MOE); [5mC] = 5-methylcytosine; d = 2'-deoxy (DNA)

Legend:
[1] = system: human PKK mRNA; test: Dose-dependent antisense inhibition of human PKK in HepaRG cells, 0.19-5.00 uM (Example 5); assay type: cell-based; details: for percent inhibition of PKK mRNA, 0.19 μM: 0.19 μM antisense oligonucleotide; for percent inhibition of PKK mRNA, 0.56 μM: 0.56 μM antisense oligonucleotide; for percent inhibition of PKK mRNA, 1.67 μM: 1.67 μM antisense oligonucleotide
Method in brief: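 PKK mRNA knockdown was measured by real-time PCR (primer probe set RTS3454) about 16 h after electroporating 20,000 HepaRG cells per well with oligonucleotide at four doses from 0.19 to 5.00 μM. Levels were adjusted to RIBOGREEN-measured total RNA, and IC50 values were calculated.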

[2] = system: human PKK mRNA; test: Antisense inhibition of human PKK mRNA in HepaRG cells, 5,000 nM (Example 2); assay type: cell-based
Method in brief: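 Chimeric MOE gapmers with full phosphorothioate backbones were tested once at 5,000 nM in electroporated HepaRG cells. After about 24 hours, quantitative PCR measured PKK mRNA relative to untreated control cells.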

[3] = HepaRG cells, electroporation, approximately 16 hours, Table 35
[4] = 4 point dose response, HepaRG cells, Table 35
[5] = HepaRG cells, electroporation, approximately 16 hours, Table 40
[6] = 4 point dose response, HepaRG cells, Table 40
[7] = HepaRG cells, electroporation, approximately 16 hours, Table 38
[8] = HepaRG cells, 5,000 nM antisense oligonucleotide, 5-10-5 gapmers, Table 17
[9] = HepaRG cells, electroporation, approximately 16 hours, Table 39
[10] = 4 point dose response, HepaRG cells, Table 39
[11] = human PKK mRNA, HepaRG cells, 5,000 nM antisense oligonucleotide, Table 18
[12] = Table 34, HepaRG, electroporation, ~16 h
[13] = Table 34, PKK mRNA, HepaRG, electroporation, ~16 h
[14] = Table 9 experiment, HepaRG cells, 20,000 cells per well, electroporation with 5,000 nM antisense oligonucleotide, approx. 24 hours, PKK mRNA by RT-PCR (RTS3454), relative to untreated control cells
[15] = Table 10 experiment, HepaRG cells, 20,000 cells per well, electroporation with 5,000 nM antisense oligonucleotide, approx. 24 hours, PKK mRNA by RT-PCR (RTS3454), relative to untreated control cells
[16] = HepaRG cells, electroporation, approximately 16 hours, Table 37
[17] = 4 point dose response, HepaRG cells, Table 37
[18] = human PKK mRNA in HepaRG cells, 5-10-5 gapmers, Table 14
[19] = HepaRG cells, electroporation, approximately 16 hours, Table 36

Substance: 547273 (antisense eT*eG*eA*eG*eT*d[5mC]*dT*d[5mC]*dT*dT*dG*dT*d[5mC]*dA*d[5mC]*eT*eT*eA*eA*eA) [compound 547273]
- percent inhibition of PKK at 0.19 μM [1, 3]: 44%
- percent inhibition of PKK at 0.56 μM [1, 3]: 69%
- percent inhibition of PKK at 1.67 μM [1, 3]: 87%
- percent inhibition of PKK at 5.00 μM [1, 3]: 87%
- percent inhibition of PKK at 5.00 μM ([1]; HepaRG cells, electroporation, approximately 16 hours, Table 41): 83%
- percent inhibition of PKK at 0.19 0μM ([1]; 0.19 0μM, HepaRG cells, electroporation, approximately 16 hours, Table 41): 0%
- percent inhibition of PKK at 0.56 0μM ([1]; 0.56 0μM, HepaRG cells, electroporation, approximately 16 hours, Table 41): 60%
- percent inhibition of PKK at 1.67 1μM ([1]; 1.67 1μM, HepaRG cells, electroporation, approximately 16 hours, Table 41): 82%
- IC50 [1, 4]: 200 nM
- IC50 ([1]; 4 point dose response, HepaRG cells, Table 41): 600 nM
- % inhibition ([2]; HepaRG cells, electroporation with 5,000 nM antisense oligonucleotide, approximately 24 hours, PKK mRNA by RT-PCR (RTS3454), relative to untreated control cells, Table 5 experiment): 93%

Substance: 546896 (eG*eT*eA*eT*e[5mC]*dA*d[5mC]*dT*dG*dT*d[5mC]*d[5mC]*dT*dA*dT*eG*eT*e[5mC]*eA*e[5mC]; antisense) [compound 546896]
- percent inhibition of PKK at 0.19 μM [1, 5]: 0%
- percent inhibition of PKK at 0.56 μM [1, 5]: 45%
- percent inhibition of PKK at 1.67 μM [1, 5]: 82%
- percent inhibition of PKK at 5.00 μM [1, 5]: 97%
- IC50 [1, 6]: 800 nM
- percent inhibition of PKK mRNA, 0.19 μM ([1]; HepaRG cells): 35%
- percent inhibition of PKK mRNA, 0.56 μM ([1]; HepaRG cells): 60%
- percent inhibition of PKK mRNA, 1.67 μM ([1]; HepaRG cells): 83%
- IC50 ([1]; HepaRG cells, 0.19-5.00 μM): 400 nM
- % inhibition ([2]; human PKK mRNA, HepaRG cells, 5-10-5 motif oligonucleotides targeting SEQ ID NO: 1 and 10): 75%

Substance: 547006 (e[5mC]*eG*e[5mC]*e[5mC]*eA*dT*d[5mC]*dT*dG*d[5mC]*d[5mC]*d[5mC]*dT*dG*dT*eA*e[5mC]*eA*eG*eA; antisense) [compound 547006]
- percent inhibition of PKK at 0.19 μM [1, 7]: 0%
- percent inhibition of PKK at 0.56 μM [1, 7]: 0%
- percent inhibition of PKK at 1.67 μM [1, 7]: 54%
- percent inhibition of PKK at 5.00 μM [1, 7]: 77%
- IC50 ([1]; 4 point dose response, HepaRG cells, Table 38): 1500 nM
- % inhibition [2, 8]: 39%

Substance: 548757 (antisense eA*eG*eT*eA*dT*d[5mC]*dA*d[5mC]*dT*dG*dT*dA*d[5mC]*eT*eA*eG*eT) [compound 548757]
- percent inhibition of PKK at 0.19 μM [1, 9]: 18%
- percent inhibition of PKK at 0.56 μM [1, 9]: 49%
- percent inhibition of PKK at 1.67 μM [1, 9]: 82%
- percent inhibition of PKK at 5.00 μM [1, 9]: 93%
- IC50 [1, 10]: 600 nM
- % inhibition [2, 11]: 87%

Substance: 548753 (antisense eT*e[5mC]*eA*e[5mC]*dT*dG*dT*dA*d[5mC]*dT*dA*dG*dT*dT*eT*e[5mC]*e[5mC]*eT) [compound 548753]
- percent inhibition of PKK at 0.19 μM [1, 5]: 0%
- percent inhibition of PKK at 0.56 μM [1, 5]: 23%
- percent inhibition of PKK at 1.67 μM [1, 5]: 49%
- percent inhibition of PKK at 5.00 μM [1, 5]: 84%
- IC50 [1, 6]: 1500 nM
- % inhibition [2, 11]: 82%

Substance: 547464 (antisense eG*e[5mC]*eT*eT*eG*dT*dG*dT*d[5mC]*dA*d[5mC]*d[5mC]*dT*dT*dT*eG*eG*eA*eA*eG) [compound 547464]
- percent inhibition of PKK at 0.19 μM [1, 12]: 21%
- percent inhibition of PKK at 0.56 μM [1, 12]: 52%
- percent inhibition of PKK at 1.67 μM [1, 12]: 67%
- percent inhibition of PKK at 5.00 μM [1, 12]: 97%
- IC50 [1, 13]: 600 nM
- % inhibition [2, 14]: 95%
- % inhibition [2, 15]: 84%

Substance: 546855 (eA*eT*eA*eA*e[5mC]*dA*dG*dT*dA*dT*d[5mC]*dA*d[5mC]*dT*dG*eT*e[5mC]*e[5mC]*eT*eA; antisense) [compound 546855]
- percent inhibition of PKK at 0.19 μM [1, 16]: 18%
- percent inhibition of PKK at 0.56 μM [1, 16]: 7%
- percent inhibition of PKK at 1.67 μM [1, 16]: 30%
- percent inhibition of PKK at 5.00 μM [1, 16]: 82%
- IC50 [1, 17]: 2200 nM
- % inhibition [2, 18]: 87%

Substance: 546253 (eG*eT*e[5mC]*eT*e[5mC]*dT*dT*dG*dG*d[5mC]*dA*dA*dA*d[5mC]*dA*eT*eT*e[5mC]*eA*e[5mC]; antisense) [compound 546253]
- percent inhibition of PKK at 0.19 μM [1, 12]: 1%
- percent inhibition of PKK at 0.56 μM [1, 12]: 13%
- percent inhibition of PKK at 1.67 μM [1, 12]: 46%
- percent inhibition of PKK at 5.00 μM [1, 12]: 81%
- IC50 [1, 13]: 1700 nM
- % inhibition ([2]; Table 8, HepaRG cells, electroporation with 5,000 nM antisense oligonucleotide, approx. 24 hours, PKK mRNA by RT-PCR (RTS3454), relative to untreated control cells): 98%

Substance: 546916 (e[5mC]*eG*eT*e[5mC]*eA*d[5mC]*dT*dG*dT*dA*d[5mC]*d[5mC]*dT*dA*dT*eA*eA*e[5mC]*eT*eG; antisense) [compound 546916]
- percent inhibition of PKK at 0.19 μM [1, 3]: 43%
- percent inhibition of PKK at 0.56 μM [1, 3]: 71%
- percent inhibition of PKK at 1.67 μM [1, 3]: 79%
- percent inhibition of PKK at 5.00 μM [1, 3]: 89%
- IC50 [1, 4]: 200 nM
- percent inhibition of PKK mRNA, 0.19 μM ([1]; HepaRG cells): 0%
- percent inhibition of PKK mRNA, 0.56 μM ([1]; HepaRG cells): 27%
- percent inhibition of PKK mRNA, 1.67 μM ([1]; HepaRG cells): 73%
- percent inhibition of PKK mRNA, 5.00 μM ([1]; HepaRG cells, 5.00 μM antisense oligonucleotide): 97%
- IC50 ([1]; HepaRG cells, 0.19-5.00 μM): 1000 nM
- % inhibition ([2]; HepaRG cells, 5,000 nM antisense oligonucleotide, 5-10-5 gapmers, Table 16): 92%

Substance: 547616 (antisense eT*eG*eT*e[5mC]*e[5mC]*dT*dA*dT*dA*dT*d[5mC]*dA*d[5mC]*dT*dG*eT*eA*e[5mC]*e[5mC]*eT) [compound 547616]
- percent inhibition of PKK at 0.19 μM [1, 9]: 26%
- percent inhibition of PKK at 0.56 μM [1, 9]: 50%
- percent inhibition of PKK at 1.67 μM [1, 9]: 72%
- percent inhibition of PKK at 5.00 μM [1, 9]: 89%
- IC50 [1, 10]: 600 nM
- % inhibition [2, 18]: 86%

Substance: 548752 (antisense e[5mC]*eA*e[5mC]*eT*dG*dT*dA*d[5mC]*dT*dA*dG*dT*dT*dT*e[5mC]*e[5mC]*eT*eA) [compound 548752]
- percent inhibition of PKK at 0.19 μM [1, 16]: 0%
- percent inhibition of PKK at 0.56 μM [1, 16]: 0%
- percent inhibition of PKK at 1.67 μM [1, 16]: 51%
- percent inhibition of PKK at 5.00 μM [1, 16]: 90%
- IC50 [1, 17]: 1900 nM
- % inhibition [2, 11]: 89%

Substance: 547780 (antisense e[5mC]*e[5mC]*e[5mC]*e[5mC]*eT*d[5mC]*dT*dT*dA*dA*dA*dT*dA*dG*d[5mC]*eA*e[5mC]*eA*eT*eG) [compound 547780]
- percent inhibition of PKK at 0.19 μM [1, 5]: 0%
- percent inhibition of PKK at 0.56 μM [1, 5]: 10%
- percent inhibition of PKK at 1.67 μM [1, 5]: 36%
- percent inhibition of PKK at 5.00 μM [1, 5]: 55%
- IC50 [1, 6]: 3900 nM
- % inhibition [2, 8]: 67%

Substance: 547366 (eG*eG*eA*eG*eT*dG*dA*dG*dA*dA*d[5mC]*d[5mC]*d[5mC]*dT*dG*eG*e[5mC]*eA*eA*e[5mC]; antisense) [compound 547366]
- percent inhibition of PKK at 0.19 μM [1, 9]: 0%
- percent inhibition of PKK at 0.56 μM [1, 9]: 45%
- percent inhibition of PKK at 1.67 μM [1, 9]: 68%
- percent inhibition of PKK at 5.00 μM [1, 9]: 91%
- IC50 [1, 10]: 1200 nM
- % inhibition ([2]; Table 7, HepaRG cells, electroporation with 5,000 nM antisense oligonucleotide, approx. 24 hours, PKK mRNA by RT-PCR (RTS3454), relative to untreated control cells): 86%

Substance: 547454 (antisense eT*eA*eT*e[5mC]*eA*dT*dG*dA*dT*dT*d[5mC]*d[5mC]*d[5mC]*dT*dT*e[5mC]*eT*eG*eA*eG) [compound 547454]
- percent inhibition of PKK at 0.19 μM [1, 19]: 19%
- percent inhibition of PKK at 0.56 μM [1, 19]: 40%
- percent inhibition of PKK at 1.67 μM [1, 19]: 58%
- percent inhibition of PKK at 5.00 μM [1, 19]: 92%
- IC50 ([1]; 4 point dose response, HepaRG cells, Table 36): 900 nM
- % inhibition [2, 14]: 92%
- % inhibition [2, 15]: 78%

Substance: 547360 (eA*eA*e[5mC]*e[5mC]*eA*dA*dT*dT*dT*d[5mC]*dT*dG*dA*dA*dA*eG*eG*eG*e[5mC]*eA; antisense) [compound 547360]
- percent inhibition of PKK at 0.19 μM [1, 16]: 8%
- percent inhibition of PKK at 0.56 μM [1, 16]: 27%
- percent inhibition of PKK at 1.67 μM [1, 16]: 76%
- percent inhibition of PKK at 5.00 μM [1, 16]: 76%
- IC50 [1, 17]: 800 nM
- % inhibition ([2]; HepaRG cells, electroporation with 5,000 nM antisense oligonucleotide, approximately 24 hours, PKK mRNA by RT-PCR (RTS3454), relative to untreated control cells, Table 6 experiment): 88%
